The structures appear in SMILES notation.

The values that follow come from patent US12686674B2, “Crystal form of compound represented by formula I, and preparation therefor and application thereof” (Shanghai Zhimeng Biopharma, Inc., priority 2021, dated 2026).

The nature of data set [1]: Key water activity research, crystal form A and hydrate crystal form E. The data set is classed as physicochemical. The note with it: room temperature.
The nature of a further data set: AMES experiments. The data set is classed as cell-based.
The nature of data set [2]: Room temperature storage of crystal form F (XRPD). The note with it: room temperature (18-20° C./45~75% RH), about 3 days. It is filed as physicochemical.
A short description of data set [3]: Suspension competition of anhydrous crystal forms A/G. It is filed as physicochemical. Here is the method: In order to study the stability relationship between other anhydrous crystal forms (crystal forms A/G), suspension competition experiments were conducted at room temperature and 60° C. using ACN and EtOAc as solvents.

Regarding `O=C1CO[C@H](c2cn(-c3ccc(Br)cc3)nc2-c2ccc(F)cc2)N1CCc1ccc2[nH]c(=O)[nH]c2c1`, the “The crystal form obtained (key water activity)” value in data set [1] (Water activity(Aw) 0, Acetone/H2O 1000:0 v/v) is “Crystal form A”; in data set [1] (Water activity(Aw) 0.2, Acetone/H2O 984:16 v/v), “Crystal form A”; in data set [1] (Water activity(Aw) 0.4, Acetone/H2O 948:52 v/v), “Crystal form A”; in data set [1] (Water activity(Aw) 0.6, Acetone/H2O 857:143 v/v), “Crystal form A”; in data set [1] (Water activity(Aw) 0.8, Acetone/H2O 604:396 v/v) it was “Crystal form A”; in data set [1] (Water activity(Aw) 1.0, Acetone/H2O 0:1000 v/v), “Crystal form E”.

As to `CC(=O)Nc1ccc(CCN2C(=O)COC2c2cn(-c3ccc(Br)cc3)nc2-c2ccc(F)cc2)cc1[N+](=O)[O-]` (centres unmarked) [3-(4-acetylamino-3-nitrophenylethyl)-2-(3-(4-fluorophenyl)-1-(4-bromophenyl)-1H-pyrazole-4-yl) oxazolidin-4-one], the AMES experiments entry in “AMES experiments” is reported as “positive”.

Take `Nc1ccc(CCN2C(=O)COC2c2cn(-c3ccc(Br)cc3)nc2-c2ccc(F)cc2)cc1[N+](=O)[O-]` (centres unmarked) [3-(4-amino-3-nitrophenylethyl)-2-(1-(4-bromophenyl)-3-(4-fluorophenyl)-1H-pyrazole-4-yl) oxazolidin-4-one]: in “AMES experiments”, the AMES experiments entry was “positive”.

With `O=C1CO[C@H](c2cn(-c3ccc(Br)cc3)nc2-c2ccc(F)cc2)N1CCc1ccc2[nH]c(=O)[nH]c2c1` [Crystal form F], the “crystal form after being placed at room temperature” value in data set [2] is on record as “transformed into crystal form E”.

Turning to `O=C1CO[C@H](c2cn(-c3ccc(Br)cc3)nc2-c2ccc(F)cc2)N1CCc1ccc2[nH]c(=O)[nH]c2c1` [Crystal form A/G], the “The crystal form obtained (suspension competition)” value in data set [3] (ACN, 60° C., test D220-PS-14-A3) is given as “Crystal form A”; in data set [3] (ACN, Room temperature(~18° C.), test D220-PS-14-A1) it was “Crystal form A”; in data set [3] (EtOAc, 60° C., test D220-PS-14-A4), “Crystal form A”; in data set [3] (EtOAc, Room temperature(~18° C.), test D220-PS-14-A2), “Crystal form A”.

As for `Nc1ccc(CCN2C(=O)COC2c2cn(-c3ccc(Br)cc3)nc2-c2ccc(F)cc2)cc1N` (centres unmarked) [2-(1-(4-bromophenyl)-3-(4-fluorophenyl)-1H-pyrazole-4-yl)-3-(3,4-diaminophenethyl) oxazolidin-4-one], the AMES experiments result in the data set “AMES experiments” was “positive”.
